Measurements taken from patent US10881642B2, “Autophagy enhancer and use thereof” (Industry-Academic Cooperation Foundation, Yonsei University, priority 2016, dated 2021).

Tested on: HeLa cells
Assay: Autophagic flux in HeLa cells (RFP-LC3/LAMP1, mRFP-GFP-LC3, FYVE-dsRed, immunoblot)
Type: cell-based
Description: FIG. 2 indicates the results of the Hela Cells treated with Compound of formula I (hereinafter referred to as MSL) showing the increase of the autophagic flux in the cells treated. FIG. 2A indicates the results of the experiments in which HeLa cells transfected with RFP-LC3 plasmid for 48 hrs were treated with compound MSL of the present disclosure or vehicle control for 1 hr, which were then […] with antibody against LAMP1. The arrows indicate puncta. LC3 or the number of puncta was also indicated as bar graph. FIG. 2B indicates the results of the experiments in which HeLa cells transfected with mRFP-GFP-LC3 plasmid for 48 hrs were treated with compound MSL of the present disclosure or vehicle control for 1 hr, in which autophagosome (yellow puncta) or autophagolysosome (red puncta) were measured using Image J software. The number of puncta was indicated as bar graph. FIG. 2C indicates the results of the experiments in which HeLa cells transfected with FYVE-dsRed plasmid for 48 hrs were treated with compound MSL of the present disclosure or vehicle control for 1 hr, in which the number of FYVE-dsRed vesicles was measured. The measured value were average of the values obtained from at least 3 images. Error bars, S.D. **, P<0.01; ***, P<0.001.
FIG. 10 is the result of the experiments using compound of formula 2 (hereinafter referred to as MSL-7) of the present disclosure as an autophagic enhancer. FIG. 10A is the result of immuneblot using the antibodies indicated using Hela cells treated with MSL or MSL-7. FIG. 10B is the result of measuring the viability of Hela cells treated with vehicle control or various concentration of MSL-7 (50-100 μM) for 48 hrs. FIG. 10C is the result of DAPI stained nuclei of TFEB-GFP HeLa cells which were treated with vehicle control or MSL-7 for 4 hrs. The graph indicates the percentage of TFEB translocated into the nuclei. Error bars, S.D. *, P<0.05; **, P<0.01; ***, P<0.001.
FIG. 12 indicates the improvement of the metabolic profile of HFD-feed mice by MSL-7: (FIG. 12A) Confocal microscopic result of HeLa cells transfected with tandem mRFP-GFP-LC3 and treated with MSL-7 in which red puncta indicates autophagolysosome. (FIG. 12B, 12C) 8 week old male C57BL/6 mice were fed with HFD or normal chow diet (NCD) for 8 weeks, and then 50 mg/kg MSL-7 was administered three times a week for 8 weeks. Non-fasting glucose level (FIG. 12B) and body weight (FIG. 12C) were monitored. (FIG. 12D) IPGTT. (FIG. 12E) AUC curve of (FIG. 12D). (FIG. 12F) ITT. (FIG. 12G) AUC curve of (FIG. 12F).
Screening of autophagy enhancer. […] Luciferase assay. Firefly and Renilla luciferase assays were conducted using the Dual-Luciferase Reporter Assay System (Promega) according to the manufacturer's recommendation. In brief, cells were lysed in 1× lysis buffer and subjected to a single round of freezing/thawing. Firefly luciferase was determined after mixing 5 μl of lysate with 25 μl of Luciferase Assay Reagent II. Renilla luciferase was then determined after further addition of 20 ul of Stop&Glo Reagent. Cell culture and media and drugs treatment. […]

Compound | autophagy-enhancing activity (immunoblot, FIG. 10A) | formation of autophagolysosome (mRFP-GFP-LC3, red puncta) | Recruitment of FYVE-dsRed+ vesicle (1 hr) | LC3+ autophagosome colocalization with lysosomal marker LAMP1 (RFP-LC3 transfected, 1 hr) | number of yellow puncta (early autophagic organelles) and red puncta (autolysosomes) (mRFP-GFP-LC3B probe, 1 hr)
COc1oc(-c2ccccc2Cl)nc1S(=O)(=O)c1ccccc1 [MSL-7, 2-(2-chlorophenyl)-5-methoxy-4-(phenylsulfonyl) oxazole] | definite autophagy-enhancing activity | induced | – | – | –
CSc1oc(-c2ccccc2)nc1S(=O)(=O)c1ccc(F)cc1 [MSL] | – | – | increased | positive for the lysosomal markers LAMP1 | increases
